Counter-ions that a name gives are not always drawn.
Assays:
[1] = test system: HTT mRNA; experiment: Splicing RT-qPCR assay, HTT canonical (CJ) and alternative (AJ) junction mRNA; format: cell-based; conditions: Homo sapiens, A673 or K562 cells, 24 hours; for IC50: decrease in canonical junction mRNA; for AC50: increase in alternative junction mRNA
Procedure, shortened: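 A673 or K562 cells were treated 24 h at 37 °C with compounds in an 11-point 3-fold dilution series (top final 10 uM, DMSO ≤0.25%). Lysates were analysed by one-step RT-qPCR for canonical (CJ) and alternative-exon (AJ) junction isoforms, normalized to GAPDH, GUSB or PPIA.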

[2] = test system: MYB mRNA; experiment: Gene panel canonical junction qPCR assay, MYB CJ mRNA decrease; format: cell-based, human; conditions: Homo sapiens, canonical junction qPCR, read-out: MYB IC50 (decrease in CJ mRNA levels)
Procedure, shortened: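 A673 or K562 cells were treated with compound, and lysates underwent cDNA synthesis and qPCR with a CY5 5′-nuclease probe or primer spanning the canonical exon junction. ΔCt versus GAPDH, GUSB or PPIA was normalized to DMSO (2^(−ΔΔCt)), converted to percentage response and fitted four-parameter logistic for IC50.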

SMILES	IC50 [1] [nM]	AC50 [1] [nM]	IC50 [2] [nM]
COc1ncc2c(N3C[C@@H](C)N[C@@H](C)C3)ccc(C(=O)Nc3cn4cc(C)nc4c(OC)n3)c2n1 [Compound 378]	100 to 1000	100 to 1000	< 100
Cc1cc2c(N3CCNCC3)ccc(C(=O)Nc3cc(F)c4nc(C)cn4c3)c2nn1 [Compound 159]	100 to 1000	100 to 1000	< 100
Cc1cn2cc(NC(=O)c3ccc(N4CCN(CCF)C5(CC5)C4)c4nccnc34)cc(F)c2n1 [Compound 370]	> 10000	> 10000	1000 to 10000
Cc1cn2cc(NC(=O)c3ccc(N4CCN[C@@H](C)C4)c4nccnc34)cc(F)c2n1 [Compound 187, N-{8-fluoro-2-methylimidazo[1,2-a]pyridin-6-yl}-8-(3-methylpiperazin-1-yl) quinoxaline-5-carboxamide]	1000 to 10000	1000 to 10000	< 100
CNC1CCN(c2ccc(C(=O)Nc3cc(F)c4nc(C)cn4c3)c3nccnc23)C1 (stereo not drawn) [Compound 190, N-{8-fluoro-2-methylimidazo[1,2-a]pyridin-6-yl}-8-[3-(methylamino)pyrrolidin-1-yl]quinoxaline-5-carboxamide]	1000 to 10000	1000 to 10000	100 to 1000
Cc1cnc2c(C(=O)Nc3cc(F)c4nc(C)cn4c3)ccc(N3CCC(N(C)C)CC3)c2n1 [Compound 208, 8-[4-(dimethylamino)piperidin-1-yl]-N-{8-fluoro-2-methylimidazo[1,2-a]pyridin-6-yl}-2-methylquinoxaline-5-carboxamide; bis(trifluoroacetic acid)]	1000 to 10000	1000 to 10000	< 100
Cc1cn2cc(NC(=O)c3ccc(N4CCNCC4)c4ccnnc34)nc(C)c2n1 [Compound 164, N-{2,8-dimethylimidazo[1,2-a]pyrazin-6-yl}-5-(piperazin-1-yl)cinnoline-8-carboxamide 2,2,2-trifluoroacetate]	> 10000	> 10000	100 to 1000
Cc1cn2cc(NC(=O)c3ccc(N4CCNCC4)c4ccnnc34)cc(C#N)c2n1 [Compound 167, N-{8-cyano-2-methylimidazo[1,2-a]pyridin-6-yl}-5-(piperazin-1-yl)cinnoline-8-carboxamide trifluoroacetic acid salt]	1000 to 10000	> 10000	100 to 1000
Cc1cn2cc(NC(=O)c3ccc(C4CCNCC4)c4nccnc34)cc(F)c2n1 [Compound 371]	100 to 1000	100 to 1000	100 to 1000
COc1cnc2c(N3CCC(N(C)C)CC3)ccc(C(=O)Nc3cc(F)c4nc(C)cn4c3)c2n1 [Compound 206, 8-[4-(dimethylamino)piperidin-1-yl]-N-{8-fluoro-2-methylimidazo[1,2-a]pyridin-6-yl}-3-methoxyquinoxaline-5-carboxamide; trifluoroacetic acid]	100 to 1000	100 to 1000	100 to 1000
COc1nc(NC(=O)c2ccc(N3CCNCC3)c3ccnnc23)cn2cc(C)nc12 [Compound 179, N-{8-methoxy-2-methylimidazo[1,2-a]pyrazin-6-yl}-5-(piperazin-1-yl)cinnoline-8-carboxamide]	1000 to 10000	1000 to 10000	< 100
Cc1cn2cc(NC(=O)c3ccc(N4CCN(C)[C@H](C)C4)c4ccnnc34)cc(F)c2n1 [Compound 149]	1000 to 10000	1000 to 10000	< 100
CN[C@@H]1CCN(c2ccc(C(=O)Nc3cc(F)c4nc(C)cn4c3)c3nccnc23)C1 (single isomer, unassigned) [Compound 193, N-{8-fluoro-2-methylimidazo[1,2-a]pyridin-6-yl}-8-[3-(methylamino)pyrrolidin-1-yl]quinoxaline-5-carboxamide]	> 10000	> 10000	100 to 1000
Cc1cn2cc(NC(=O)c3ccc(N4C[C@H]5C[C@@H]4C5N(C)C)c4ccnnc34)cc(F)c2n1 (stereo partly drawn) [Compound 155]	> 10000	> 10000	1000 to 10000
O=C(Nc1cn[nH]c1)c1ccc(N2CCNCC2)c2ccnnc12 [Compound 126]	> 10000	> 10000	> 10000
CCN1CCC(c2ccc(C(=O)Nc3cc(F)c4nc(C)cn4c3)c3nnccc23)CC1 [Compound 141]	1000 to 10000	1000 to 10000	100 to 1000
CN[C@H]1CCN(c2ccc(C(=O)Nc3cc(F)c4nc(C)cn4c3)c3nccnc23)C1 (single isomer, unassigned) [Compound 194, N-{8-fluoro-2-methylimidazo[1,2-a]pyridin-6-yl}-8-[3-(methylamino)pyrrolidin-1-yl]quinoxaline-5-carboxamide]	1000 to 10000	1000 to 10000	< 100
Cc1cnc2c(N3CCC(N(C)C)CC3)ccc(C(=O)Nc3cc(F)c4nc(C)cn4c3)c2n1 [Compound 200, 8-[4-(dimethylamino)piperidin-1-yl]-N-{8-fluoro-2-methylimidazo[1,2-a]pyridin-6-yl}-3-methylquinoxaline-5-carboxamide]	100 to 1000	100 to 1000	< 100
COc1cnc2c(N3CCNCC3)ccc(C(=O)Nc3cc(F)c4nc(C)cn4c3)c2n1 [Compound 207, N-{8-fluoro-2-methylimidazo[1,2-a]pyridin-6-yl}-3-methoxy-8-(piperazin-1-yl)quinoxaline-5-carboxamide; bis(trifluoroacetic acid)]	100 to 1000	1000 to 10000	< 100
Cc1cn2cc(NC(=O)c3ccc(N4CC5(CNC5)C4)c4ccnnc34)cc(F)c2n1 [Compound 131]	1000 to 10000	1000 to 10000	100 to 1000
Cc1cn2cc(NC(=O)c3ccc(N4C[C@H]5CC[C@@H](C4)N5)c4ccnnc34)cc(F)c2n1 [Compound 108]	1000 to 10000	1000 to 10000	100 to 1000
Cc1cn2cc(NC(=O)c3ccc(N4CCNC5(CCOC5)C4)c4nccnc34)cc(F)c2n1 (stereo not drawn) [Compound 373]	> 10000	> 10000	100 to 1000
CC[C@H]1CN(c2ccc(C(=O)Nc3cc(F)c4nc(C)cn4c3)c3nnccc23)CCN1 [Compound 152]	1000 to 10000	1000 to 10000	100 to 1000
Cc1cn2cc(NC(=O)c3ccc(N4C[C@@H](C)N[C@@H](C)C4)c4ccnnc34)cc(F)c2n1 [Compound 161, 5-(3,5-dimethylpiperazin-1-yl)-N-{8-fluoro-2-methylimidazo[1,2-a]pyridin-6-yl}cinnoline-8-carboxamide 2,2,2-trifluoroacetate]	1000 to 10000	1000 to 10000	< 100
COCCOc1ccc2c(N3CCNCC3)ccc(C(=O)Nc3cc(F)c4nc(C)cn4c3)c2n1 [Compound 173, N-{8-fluoro-2-methylimidazo[1,2-a]pyridin-6-yl}-2-(2-methoxyethoxy)-5-(piperazin-1-yl)quinoline-8-carboxamide]	> 10000	> 10000	< 100
Cc1cn2cc(NC(=O)c3ccc(N4CC(C)(C)NC(C)(C)C4)c4nccnc34)cc(F)c2n1 [Compound 219, N-{8-fluoro-2-methylimidazo[1,2-a]pyridin-6-yl}-8-(3,3,5,5-tetramethylpiperazin-1-yl)quinoxaline-5-carboxamide]	1000 to 10000	1000 to 10000	< 100
CCC1CN(c2ccc(C(=O)Nc3cc(F)c4nc(C)cn4c3)c3nnccc23)CCN1 (stereo not drawn) [Compound 130]	1000 to 10000	1000 to 10000	< 100
